Measurements published in patent US20080071005A1, “Environment-Friendly Pollution-Proof Agent” (priority 2004, published 2008).
Read-outs that look alike come from different tables or passages of the source.

Key:
mice = experiment: safety test, 10 mg/kg to mice, 7 days observation; assay type: in vivo; details: 10 mg/kg in DMSO/water, 10 mice per group, observed for 7 days
[1] = system: spores of Enteromorpha prolifera and Ulva pertusa; experiment: prevention of the attachment of fouling algae (summary)
Description: The effect of the extracts on the prevention of the attachment of fouling algae was tested using the spores of Enteromorpha prolifera and Ulva pertusa, which are typical fouling algae.

Aspergillus niger = experiment: minimum inhibitory concentration, two-fold serial dilution in nutrient broth; assay type: cell-based; details: 30° C., 48 hours
Excerpt: (§1) A liquid medium obtained by diluting PAGS by two-fold serial dilution was placed on a 96-multiwell plate and inoculated with 10^4 cfu/ml of microorganisms. […] The liquid medium used in the test was a nutrient broth (Difco).

Staphylococcus aureus = experiment: as above; assay type: cell-based; details: 30° C., 48 hours
Excerpt: as §1

Enteromorpha spores = experiment: inhibitory activity test against the mobility of Enteromorpha spores; assay type: cell-based; details: Brassica extracts and fractions, comparison within the set
Excerpt: In order to investigate inhibitory substances against the mobility of Enteromorpha spores from extracts of Citrus sp., organic solvent fractions were made.
In order to investigate inhibitory substances against the mobility of Enteromorpha spores from extracts of brassica, organic solvent fractions were made.

[2] = safety test, oral and transdermal toxicity in rabbits; details: rabbit, in vivo

Compound | death of the mice (mice) | antifouling activity [1] | also measured
C=CCN=C=S (single isomer, unassigned) [allyl isothiocyanate] | no death | excellent antifouling activity | –
CCCCCCCCCCCCCCCCCCCC(=O)O [arachadic acid] | no death | excellent antifouling activity | –
methyl caporate | no death | excellent antifouling activity | MIC Aspergillus niger 1:0 (Aspergillus niger; ratio 1:0): 10; MIC Aspergillus niger 3:1 (Aspergillus niger; ratio 3:1): 6; MIC Staphylococcus aureus 1:0 (Staphylococcus aureus; ratio 1:0): 4; MIC Staphylococcus aureus 3:1 (Staphylococcus aureus; ratio 3:1): 5
CCCCCCC(=O)OCC [ethyl heptanoate] | no death | excellent antifouling activity | –
CC(C)=CCC/C(C)=C/C=O | – | excellent antifouling activity | –
CC/C=C\CCOC(C)=O [cis-3-hexenyl acetate] | – | excellent antifouling activity | inhibitory activity against the mobility of Enteromorpha spores, in words (Enteromorpha spores): most excellent inhibitory effect; LD50 ([2]; oral, read-out: LD50 (oral)): > 5000 mg/kg; LD50 ([2]; topical or ocular, transdermal, read-out: LD50 (transdermal)): > 5000 mg/kg; solubility in organic solvent (organic solvent): insoluble in organic solvent; solubility in water (water): insoluble in water
C=CCc1ccc(O)c(OC)c1 [eugenol] | no death | excellent antifouling activity | –
C=CC(=C)CCC=C(C)C [beta-myrcene] | no death | excellent antifouling activity | –
CCCCCCCCO (single isomer, unassigned) [1-octanol] | no death | excellent antifouling activity | –
